This assay concerns several pathogenic bacteria. Put plainly: activity against pathogenic bacteria. The class given is cell-based. The source says: RODEO can be used to assist in identifying lasso peptide gene clusters (FIG. 2). […] Several new lasso peptides have been characterized. (FIG. 3B-C). […] RODEO provides a roadmap for the discovery of new RiPPs and lasso peptide biosynthetic enzymology.

The record followed here is patent publication US20210108191A1, “Methods of Production of Biologically Active Lasso Peptides” (The Board of Trustees of the University of Illinois, priority 2017, published 2021).

Bridges are numbered along the chain shown (N, C = ends). Where no end group is shown, it is not given here.

For “LP2006: rare disulfide-containing, class IV lasso peptide (SEQ ID NO:6) from Nocardiopsis alba (GRPNWGFENDWSCVRVC; disulfide 13-17 (inferred); also: lasso topology, ring places not given here)”, the “activity against pathogenic bacteria” value is listed as “active against several pathogenic bacteria”.
